Reference: patent US20180216124A1, “METHOD OF PRODUCING PLASTID TRANSFORMANTS” (HONDA MOTOR CO., LTD., priority 2015, published 2018)

Key:
switchgrass calluses [1] = experiment: Sensitivity of switchgrass calluses to drugs: callus growth on PVC medium; assay type: cell-based
Protocol: (§1) Skins of mature seeds of switchgrass variety “Alamo” were removed by 60% (v/v) sulfate treatment, and a fungicide for seeds was used for sterilization. […] The seeds were cultured for a few months in the dark at 28° C. Then, grown calluses were classified as independent strains for each derived seed. Strains in which a compact callus expected to have a regeneration ability was grown were selected and cultured.
(§2) In order to develop a new screening method that is appropriate for plastid transformation, the calluses of the regeneration strains prepared in the above <1> were used to examine sensitivity of wild type plant cells to various drugs.

switchgrass calluses [2] = experiment: Sensitivity of switchgrass calluses to drugs: plant (shoot) regeneration on PVS medium; assay type: cell-based; conditions: switchgrass callus on PVS medium
Protocol: as §1, §2

[3] = test system: wild type switchgrass calluses; conditions: 28° C.
Protocol: In the sodium nitrite screening, in order to determine a screening concentration more effectively, wild type switchgrasses were cultured under sodium nitrite conditions of different concentrations, and the sensitivity of wild type cells to sodium nitrite was examined.
Specifically, a mass of 14 switchgrass calluses remained for each plate on PVC media and PVS media containing sodium nitrite having a concentration of 0, 0.25, 0.5, 0.6, 0.7, 0.8, 0.9, or 1.0 g/L, and three plates of each of which were prepared for each concentration condition. The PVC media were cultured in the dark at 28° C. and the PVS media were cultured under light at 28° C. for 4 weeks. After culture, the number of grown calluses was measured in the PVC media, and the number of calluses from which plants were regenerated was measured in the PVS media. The growth rate and the regeneration rate were calculated.

[4] = test system: wild type of rice variety Nipponbare; conditions: MS-NK medium containing sodium nitrite 400 mg/L
Protocol: PSR1 genes were introduced into plastids of rice variety Nipponbare and rice variety Koshihikari and transformants were screened using sodium nitrite. Specifically, it was performed as follows. An MS-NK medium (Nishimura et al., Nature Protocols, 2006, Vol. 1, p. 2796-2802) used as a regeneration medium contained nitrate nitrogen, originally.

[5] = PVC media, dark, 4 weeks (FIG. 2A)
[6] = PVS media, light, 4 weeks (FIG. 2B)

Molecule | Callus growth: supression concentration (switchgrass calluses [1]) | Shoot regeneration: supression concentration (switchgrass calluses [2]) | also measured
CCc1cc(C)cc(CC)c1-c1c(OC(=O)C(C)(C)C)n2n(c1=O)CCOCC2 [Pinoxaden] | (>1.0 μM) | – | –
C[C@@H](Oc1ccc(Oc2ncc(Cl)cc2F)cc1)C(=O)O [Clodinafop] | (>1.0 μM) | – | –
Bleocin | (>25 mg/L) | (>10 mg/L) | –
C[n+]1ccc(-c2cc[n+](C)cc2)cc1 [Methylviologen] | (>1.0 μM) | (>1.0 μM) | –
CCCCOC(=O)C(C)Oc1ccc(Oc2ccc(C(F)(F)F)cn2)cc1 (centres unmarked) [Fluazifop-butyl] | (>1.0 μM) | (>0.1 μM) | –
CCCC(=NOCC)C1=C(O)CC(C2CCCSC2)CC1=O (centres unmarked) [Cycloxydim] | (>1.5 μM) | (>0.1 μM) | –
[H]/N=C(/N)N[C@H]1[C@H](O)[C@@H](O)[C@H](O[C@@H]2O[C@@H](C)[C@](O)(C=O)[C@H]2O[C@@H]2O[C@@H](CO)[C@H](O)[C@@H](O)[C@@H]2NC)[C@@H](N/C(N)=N\[H])[C@@H]1O [Streptomycin] | – | (>400 mg/L) | –
NC[C@H]1O[C@H](O[C@H]2[C@H](O)[C@@H](O[C@H]3O[C@H](CO)[C@@H](O)[C@H](N)[C@H]3O)[C@H](N)C[C@@H]2N)[C@H](O)[C@@H](O)[C@@H]1O [Kanamycin] | (>200 mg/L) | (>100 mg/L) | –
O=NO [Sodium nitrite] | (>800 mg/L) | (>800 mg/L) | Concentration at which callus growth was completely suppressed [3, 5]: ≥ 0.9 g/L; Concentration at which callus growth was sharply reduced [3, 5]: 0.7 g/L; Concentration at which plant regeneration was completely suppressed [3, 6]: 1.0 g/L; Concentration at which plant regeneration was sharply reduced [3, 6]: 0.8 g/L; Regeneration ability of wild type rice [4]: had a regeneration ability
CC(Oc1ccc(Oc2ncc(C(F)(F)F)cc2Cl)cc1)C(=O)O (centres unmarked) [Haloxyfop] | (>1.0 μM) | – | –
CN(C)[C@@H]1C(O)=C(C(N)=O)C(=O)[C@@]2(O)C(O)=C3C(=O)c4c(O)cccc4[C@@](C)(O)[C@H]3C[C@@H]12 [Tetracycline] | (>40 mg/L) | (>60 mg/L) | –
O=C(O)CNCP(=O)(O)O [Glyphosate] | (>0.1 mM) | (>0.1 mM) | –
CN[C@@H]1[C@@H](O)[C@@H](O[C@@H]2[C@@H](O)[C@H](O[C@H]3O[C@H]([C@@H](C)O)[C@@H](O)[C@H](O)[C@H]3N)[C@@H](N)C[C@H]2N)OC[C@]1(C)O [G418] | (>25 mg/L) | (>25 mg/L) | –
O=C(N[C@H](CO)[C@H](O)c1ccc([N+](=O)[O-])cc1)C(Cl)Cl [Cloramphenicol] | (>30 mg/L) | (>15 mg/L) | –
